Reference: ChEMBL document CHEMBL5715954, “Silencing c-Myc translation as a therapeutic strategy through targeting PI3Kδ and CK1ε in hematological malignancies” (Blood, 2017)

Legend:
Parameters in all cases: scale not given: the % may be the effect or the level left
[1] = target: Tyrosine-protein kinase Fes/Fps (Homo sapiens) (UniProt P07332); test: Inhibition of human FES/FPS assessed as enzyme activity at 1 uM using poly[Glu:Tyr] (4:1) as substrate preincubated for 20 mins followed by [gamma-33P]-ATP addition and measured after 120 mins by radiometric Hot-SpotSM Kinase assay relative to control
[2] = target: T1, SNF-related serine/threonine-protein kinase (Homo sapiens) (UniProt Q9NRH2); test: Inhibition of human SNRK assessed as enzyme activity at 1 uM using myelin basic protein as substrate preincubated for 20 mins followed by [gamma-33P]-ATP addition and measured after 120 mins by radiometric Hot-SpotSM Kinase assay relative to control
T1 sequence (whole entry): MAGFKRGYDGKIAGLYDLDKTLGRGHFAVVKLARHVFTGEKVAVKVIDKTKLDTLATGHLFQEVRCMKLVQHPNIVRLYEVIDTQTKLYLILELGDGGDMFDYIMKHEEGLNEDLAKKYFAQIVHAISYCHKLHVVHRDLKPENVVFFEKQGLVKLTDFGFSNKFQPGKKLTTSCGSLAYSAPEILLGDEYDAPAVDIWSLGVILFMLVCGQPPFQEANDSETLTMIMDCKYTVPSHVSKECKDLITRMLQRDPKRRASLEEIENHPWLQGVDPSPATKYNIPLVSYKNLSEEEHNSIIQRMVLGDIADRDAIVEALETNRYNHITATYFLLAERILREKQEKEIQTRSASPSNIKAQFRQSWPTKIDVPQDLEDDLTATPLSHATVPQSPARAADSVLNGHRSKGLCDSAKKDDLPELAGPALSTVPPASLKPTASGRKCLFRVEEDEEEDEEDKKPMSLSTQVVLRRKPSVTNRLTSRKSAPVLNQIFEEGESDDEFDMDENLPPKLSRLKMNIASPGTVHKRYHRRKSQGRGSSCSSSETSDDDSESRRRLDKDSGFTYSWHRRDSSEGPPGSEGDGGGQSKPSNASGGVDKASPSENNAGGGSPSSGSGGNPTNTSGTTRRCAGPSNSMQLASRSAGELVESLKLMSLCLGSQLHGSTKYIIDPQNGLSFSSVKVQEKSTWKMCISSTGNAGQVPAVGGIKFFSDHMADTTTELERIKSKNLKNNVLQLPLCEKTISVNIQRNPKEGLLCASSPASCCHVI

[3] = target: Casein kinase I isoform delta (Homo sapiens) (UniProt P48730); test: Inhibition of human CK1delta assessed as enzyme activity at 1 uM using KRRRAL[pS]VASLPGL as substrate preincubated for 20 mins followed by [gamma-33P]-ATP addition and measured after 120 mins by radiometric Hot-SpotSM Kinase assay relative to control
[4] = target: T2, Calcium/calmodulin-dependent protein kinase type IV (Homo sapiens) (UniProt Q16566); test: Inhibition of human CAMK4 assessed as enzyme activity at 1 uM using KKLNRTLSFAEPG as substrate preincubated for 20 mins followed by [gamma-33P]-ATP addition and measured after 120 mins by radiometric Hot-SpotSM Kinase assay relative to control
T2 sequence (whole entry): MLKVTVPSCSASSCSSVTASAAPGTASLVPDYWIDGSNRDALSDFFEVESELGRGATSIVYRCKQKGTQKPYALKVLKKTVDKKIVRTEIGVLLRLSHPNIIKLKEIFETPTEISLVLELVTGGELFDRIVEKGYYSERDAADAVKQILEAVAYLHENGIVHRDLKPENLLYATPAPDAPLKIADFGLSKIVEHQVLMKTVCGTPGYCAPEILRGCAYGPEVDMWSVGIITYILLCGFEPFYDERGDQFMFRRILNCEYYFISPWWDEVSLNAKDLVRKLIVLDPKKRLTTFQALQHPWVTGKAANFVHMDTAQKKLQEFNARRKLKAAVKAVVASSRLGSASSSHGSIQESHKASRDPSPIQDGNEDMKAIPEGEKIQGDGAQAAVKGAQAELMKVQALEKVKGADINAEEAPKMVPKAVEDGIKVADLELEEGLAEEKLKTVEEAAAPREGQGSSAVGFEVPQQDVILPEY

[5] = target: Casein kinase II subunit alpha' (Homo sapiens) (UniProt P19784); test: Inhibition of human CK2a2 assessed as enzyme activity at 1 uM using RRRDDDSDDD as substrate preincubated for 20 mins followed by [gamma-33P]-ATP addition and measured after 120 mins by radiometric Hot-SpotSM Kinase assay relative to control
[6] = target: MAP kinase-activated protein kinase 3 (Homo sapiens) (UniProt Q16644); test: Inhibition of human MAPKAPK3 assessed as enzyme activity at 1 uM using KKLNRTLSVA as substrate preincubated for 20 mins followed by [gamma-33P]-ATP addition and measured after 120 mins by radiometric Hot-SpotSM Kinase assay relative to control
[7] = target: Testis-specific serine/threonine-protein kinase 6 (Homo sapiens) (UniProt Q9BXA6); test: Inhibition of human SSTK assessed as enzyme activity at 1 uM using myelin basic protein as substrate preincubated for 20 mins followed by [gamma-33P]-ATP addition and measured after 120 mins by radiometric Hot-SpotSM Kinase assay relative to control
[8] = target: T3, Serine/threonine-protein kinase 4 (Homo sapiens) (UniProt Q13043); test: Inhibition of human MST1 assessed as enzyme activity at 1 uM using KKSRGDYMTMQIG as substrate preincubated for 20 mins followed by [gamma-33P]-ATP addition and measured after 120 mins by radiometric Hot-SpotSM Kinase assay relative to control
T3 sequence (whole entry): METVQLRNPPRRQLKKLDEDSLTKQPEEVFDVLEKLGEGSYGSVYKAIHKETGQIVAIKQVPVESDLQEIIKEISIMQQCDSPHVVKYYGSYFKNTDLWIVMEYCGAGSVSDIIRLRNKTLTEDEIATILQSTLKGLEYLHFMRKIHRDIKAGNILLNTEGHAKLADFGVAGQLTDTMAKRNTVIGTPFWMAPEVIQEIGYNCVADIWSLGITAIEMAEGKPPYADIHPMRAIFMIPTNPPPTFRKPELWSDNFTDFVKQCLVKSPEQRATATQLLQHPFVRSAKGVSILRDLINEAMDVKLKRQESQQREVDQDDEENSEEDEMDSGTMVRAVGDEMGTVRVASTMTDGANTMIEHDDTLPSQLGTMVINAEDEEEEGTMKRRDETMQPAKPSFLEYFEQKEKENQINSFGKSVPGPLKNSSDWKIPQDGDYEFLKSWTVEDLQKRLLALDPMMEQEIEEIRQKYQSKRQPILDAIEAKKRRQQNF

Casein kinase I isoform delta (Homo sapiens), sequence (P48730 whole entry, looked up, canonical isoform): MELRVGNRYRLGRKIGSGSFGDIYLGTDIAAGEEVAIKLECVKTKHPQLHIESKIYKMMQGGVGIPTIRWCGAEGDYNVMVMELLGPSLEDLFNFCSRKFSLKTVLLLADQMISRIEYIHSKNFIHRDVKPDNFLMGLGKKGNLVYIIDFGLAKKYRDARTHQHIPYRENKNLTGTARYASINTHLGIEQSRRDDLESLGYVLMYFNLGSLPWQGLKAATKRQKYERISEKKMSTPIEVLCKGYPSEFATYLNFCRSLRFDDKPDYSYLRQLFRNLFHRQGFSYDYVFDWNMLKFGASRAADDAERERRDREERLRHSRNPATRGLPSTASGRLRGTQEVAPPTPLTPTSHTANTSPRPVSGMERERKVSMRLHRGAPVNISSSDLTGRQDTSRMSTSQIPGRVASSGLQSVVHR
Casein kinase II subunit alpha' (Homo sapiens), sequence (P19784 whole entry, looked up): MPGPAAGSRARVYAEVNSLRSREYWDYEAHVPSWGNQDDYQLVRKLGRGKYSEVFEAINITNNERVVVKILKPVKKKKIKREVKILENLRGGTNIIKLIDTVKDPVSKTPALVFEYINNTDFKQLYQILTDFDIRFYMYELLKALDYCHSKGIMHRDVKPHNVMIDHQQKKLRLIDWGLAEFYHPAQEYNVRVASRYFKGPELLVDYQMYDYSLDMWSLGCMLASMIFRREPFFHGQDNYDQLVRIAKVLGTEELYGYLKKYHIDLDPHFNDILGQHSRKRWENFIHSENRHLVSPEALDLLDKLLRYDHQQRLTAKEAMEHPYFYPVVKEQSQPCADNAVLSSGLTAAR
MAP kinase-activated protein kinase 3 (Homo sapiens), sequence (Q16644 whole entry, looked up): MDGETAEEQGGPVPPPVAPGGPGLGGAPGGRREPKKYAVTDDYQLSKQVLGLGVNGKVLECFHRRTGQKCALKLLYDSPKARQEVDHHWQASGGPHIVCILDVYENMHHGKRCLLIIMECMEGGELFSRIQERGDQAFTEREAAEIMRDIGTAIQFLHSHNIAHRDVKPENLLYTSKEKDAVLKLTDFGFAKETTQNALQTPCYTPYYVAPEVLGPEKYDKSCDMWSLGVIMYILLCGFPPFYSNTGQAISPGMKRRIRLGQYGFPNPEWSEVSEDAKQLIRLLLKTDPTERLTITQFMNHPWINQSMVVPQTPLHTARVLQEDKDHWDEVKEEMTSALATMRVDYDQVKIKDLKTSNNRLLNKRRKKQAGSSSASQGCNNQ
Tyrosine-protein kinase Fes/Fps (Homo sapiens), sequence (P07332 whole entry): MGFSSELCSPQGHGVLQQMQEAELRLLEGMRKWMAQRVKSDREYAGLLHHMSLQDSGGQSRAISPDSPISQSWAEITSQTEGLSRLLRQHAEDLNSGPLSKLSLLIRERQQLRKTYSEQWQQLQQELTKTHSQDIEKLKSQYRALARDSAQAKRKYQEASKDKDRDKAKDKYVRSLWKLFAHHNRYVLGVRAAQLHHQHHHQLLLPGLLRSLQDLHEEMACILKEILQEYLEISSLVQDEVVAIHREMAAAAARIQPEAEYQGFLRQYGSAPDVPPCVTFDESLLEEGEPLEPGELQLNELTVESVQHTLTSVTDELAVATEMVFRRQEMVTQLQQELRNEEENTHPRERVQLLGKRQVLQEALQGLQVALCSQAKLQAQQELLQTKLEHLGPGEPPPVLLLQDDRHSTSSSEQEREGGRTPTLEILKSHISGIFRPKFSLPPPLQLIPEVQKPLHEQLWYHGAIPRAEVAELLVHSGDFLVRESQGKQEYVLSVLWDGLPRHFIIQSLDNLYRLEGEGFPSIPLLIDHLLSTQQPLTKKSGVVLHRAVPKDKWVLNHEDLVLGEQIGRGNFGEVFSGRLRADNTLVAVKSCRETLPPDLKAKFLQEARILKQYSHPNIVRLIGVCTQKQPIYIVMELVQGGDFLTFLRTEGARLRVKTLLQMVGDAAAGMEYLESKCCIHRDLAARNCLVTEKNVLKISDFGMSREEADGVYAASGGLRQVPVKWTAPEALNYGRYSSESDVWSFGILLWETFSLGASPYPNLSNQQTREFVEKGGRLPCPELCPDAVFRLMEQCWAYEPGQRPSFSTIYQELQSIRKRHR
Testis-specific serine/threonine-protein kinase 6 (Homo sapiens), sequence (Q9BXA6 whole entry): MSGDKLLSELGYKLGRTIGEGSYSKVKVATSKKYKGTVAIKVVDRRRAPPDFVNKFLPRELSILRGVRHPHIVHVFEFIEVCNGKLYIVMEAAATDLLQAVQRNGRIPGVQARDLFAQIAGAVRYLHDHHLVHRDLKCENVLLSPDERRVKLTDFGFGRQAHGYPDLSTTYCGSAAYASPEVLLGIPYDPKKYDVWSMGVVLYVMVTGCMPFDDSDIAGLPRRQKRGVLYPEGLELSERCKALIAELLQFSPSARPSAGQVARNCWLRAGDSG

SMILES | Activity [1] | Activity [2] | Activity [3] | Activity [4] | Activity [5] | Activity [6] | Activity [7] | Activity [8]
CC[C@H](Nc1ncnc2[nH]cnc12)c1nc2cccc(F)c2c(=O)n1-c1ccccc1 | 91.5% | 102% | 96.5% | 82.5% | 91.8% | 97.3% | 105% | 89.8%
C[C@H](Nc1ncnc2nc[nH]c12)c1cc2cccc(Cl)c2c(=O)n1-c1ccccc1 | 95.6% | 96.6% | 97% | 80.7% | 99.5% | 95.8% | 103% | 94.1%
CC(C)Oc1ccc(-c2nn([C@@H](C)c3oc4ccc(F)cc4c(=O)c3-c3cccc(F)c3)c3ncnc(N)c23)cc1F [UMBRALISIB] | 97.5% | 102% | 97.7% | 75.4% | 86.4% | 90.6% | 102% | 95.1%
